Structures are written as SMILES. Bounds are passed on as bounds.

One test addresses FLT3 kinase (Homo sapiens (Human), UniProt P36888). Nature of the test: Competition binding assay (Kd), FLT3. To be noted: competition binding assay.
Another test addresses KIT kinase (Homo sapiens (Human), UniProt P10721). Description: Competition binding assay (Kd), KIT. To be noted: competition binding assay. As to the method: In certain embodiments, competition binding assays were performed as described in Fabian et al., Nature Biotechnology 2005, 23, 329-336.
Competition binding assays used herein were developed, validated and performed as described in Fabian et al., Nature Biotechnology 2005, 23, 329-336. Kinases were produced as fusions to T7 phage (See, Fabian et al. or WO04/015142) or alternatively, the kinases were expressed in HEK-293 cells and subsequently tagged with DNA for PCR detection (See, WO08/005,310). […] The liganded beads were blocked with excess biotin and washed with blocking buffer (SeaBlock (Pierce), 1% BSA, 0.05% Tween 20, 1 mM DTT) to remove unbound ligand and to reduce non-specific binding. […] Test compounds were prepared as 100× stocks in DMSO and diluted into the aqueous environment. Kds were determined using an eleven point threefold serial dilutions. DMSO or control compounds were was added to control assays lacking a test compound. […] The kinase concentration in the eluates was measured by quantitative PCR. […]

FLT3 kinase, sequence (P36888 27-993): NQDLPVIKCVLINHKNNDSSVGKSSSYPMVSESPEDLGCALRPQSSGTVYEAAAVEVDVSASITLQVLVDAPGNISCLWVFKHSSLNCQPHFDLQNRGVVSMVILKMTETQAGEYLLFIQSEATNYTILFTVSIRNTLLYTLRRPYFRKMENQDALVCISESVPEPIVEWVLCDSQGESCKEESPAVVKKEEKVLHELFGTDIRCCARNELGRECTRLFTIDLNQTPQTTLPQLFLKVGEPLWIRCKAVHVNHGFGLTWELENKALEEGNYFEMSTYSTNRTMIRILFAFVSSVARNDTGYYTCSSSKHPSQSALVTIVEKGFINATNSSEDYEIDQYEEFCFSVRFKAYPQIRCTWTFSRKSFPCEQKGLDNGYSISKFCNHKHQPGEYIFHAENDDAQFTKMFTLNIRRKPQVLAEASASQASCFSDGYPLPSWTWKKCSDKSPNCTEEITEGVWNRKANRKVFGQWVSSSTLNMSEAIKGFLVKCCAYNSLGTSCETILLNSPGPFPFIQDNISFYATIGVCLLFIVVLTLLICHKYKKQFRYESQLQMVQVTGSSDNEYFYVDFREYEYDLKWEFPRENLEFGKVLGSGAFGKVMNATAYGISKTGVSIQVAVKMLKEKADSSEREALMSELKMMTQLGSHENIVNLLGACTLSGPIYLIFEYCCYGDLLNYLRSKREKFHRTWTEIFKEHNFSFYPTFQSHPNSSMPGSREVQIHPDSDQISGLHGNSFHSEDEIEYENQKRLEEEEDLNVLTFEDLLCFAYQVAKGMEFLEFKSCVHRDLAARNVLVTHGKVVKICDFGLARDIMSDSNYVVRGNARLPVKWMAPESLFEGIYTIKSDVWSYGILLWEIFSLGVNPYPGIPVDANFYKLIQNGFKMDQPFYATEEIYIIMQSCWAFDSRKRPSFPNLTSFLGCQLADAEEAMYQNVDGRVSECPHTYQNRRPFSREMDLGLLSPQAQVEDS
KIT kinase, sequence (P10721 26-976): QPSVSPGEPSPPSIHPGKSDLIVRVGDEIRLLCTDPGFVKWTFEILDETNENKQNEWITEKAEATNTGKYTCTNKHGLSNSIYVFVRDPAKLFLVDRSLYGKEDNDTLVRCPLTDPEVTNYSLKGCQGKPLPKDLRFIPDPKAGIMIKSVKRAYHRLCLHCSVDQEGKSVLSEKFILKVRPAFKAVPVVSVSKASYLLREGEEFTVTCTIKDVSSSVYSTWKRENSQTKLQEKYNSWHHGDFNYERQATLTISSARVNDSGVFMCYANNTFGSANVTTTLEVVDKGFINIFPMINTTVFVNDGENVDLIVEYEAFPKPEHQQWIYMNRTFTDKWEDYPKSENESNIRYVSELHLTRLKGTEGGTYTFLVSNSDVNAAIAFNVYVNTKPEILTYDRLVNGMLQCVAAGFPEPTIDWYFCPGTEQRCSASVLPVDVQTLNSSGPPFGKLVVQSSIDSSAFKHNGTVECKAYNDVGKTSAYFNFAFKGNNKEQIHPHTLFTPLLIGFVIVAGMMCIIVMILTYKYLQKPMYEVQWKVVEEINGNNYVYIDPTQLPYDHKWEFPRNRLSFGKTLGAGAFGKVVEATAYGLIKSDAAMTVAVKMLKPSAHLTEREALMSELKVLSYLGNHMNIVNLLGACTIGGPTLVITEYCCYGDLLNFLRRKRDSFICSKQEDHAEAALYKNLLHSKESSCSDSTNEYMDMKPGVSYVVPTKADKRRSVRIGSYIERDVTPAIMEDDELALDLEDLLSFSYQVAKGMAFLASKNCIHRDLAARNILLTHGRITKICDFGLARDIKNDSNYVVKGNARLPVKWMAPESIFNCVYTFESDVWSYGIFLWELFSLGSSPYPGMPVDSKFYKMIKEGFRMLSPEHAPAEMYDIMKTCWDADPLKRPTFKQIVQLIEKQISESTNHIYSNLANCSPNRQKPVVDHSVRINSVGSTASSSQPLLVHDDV
Experimental for FLT3 kinase: A selectivity score (S35) is a quantitative measure of selectivity of a compound against a panel of kinases. […] Percent of control (POC) is calculated by subtracting the signal of the control compound (POC=0) from the signal of the test compound and dividing the outcome by the signal of DMSO (POC=100) minus the signal of the control compound.

By Kd is commonly meant the concentration at which binding is half-saturated. A higher Kd goes with a looser complex. Take `COc1cc2ncc(-c3ccc(CC(=O)Nc4cc(C(C)(C)C(F)(F)F)on4)c(F)c3)cc2cc1OCCN1CC[C@H](O)[C@@H](F)C1` (stereo in doubt) [Example 87, 2-(2-Fluoro-4-{6-[2-(3-fluoro-4-hydroxy-piperidin-1-yl)-ethoxy]-7-methoxy-quinolin-3-yl}-phenyl)-N-[5-(2,2,2-trifluoro-1,1-dimethyl-ethyl)-isoxazol-3-yl]-acetamide]: the dissociation constant (Kd) on FLT3 kinase and on KIT kinase was less than 5 nM each time.

`Nc1nc2ccccc2nc1-c1ccc(CC(=O)Nc2cc(C3(C(F)(F)F)CC3)on2)cc1` [Example 7, 2-(4-(3-aminoquinoxalin-2-yl)phenyl)-N-(5-(1-(trifluoromethyl)cyclopropyl)isoxazol-3-yl)acetamide]: the Kd on FLT3 kinase and on KIT kinase was less than 5 nM in each case.

As for `Cn1ccc2ncc(-c3ccc(CC(=O)Nc4cc(C5(C(F)(F)F)CC5)on4)cc3)nc21` [Example 9, 2-(4-(5-methyl-5H-pyrrolo[2,3-b]pyrazin-3-yl)phenyl)-N-(5-(1-(trifluoromethyl)cyclopropyl)isoxazol-3-yl)acetamide], the Kd at FLT3 kinase and at KIT kinase was less than 5 nM throughout.

Take `O=C(Cc1ccc(-c2cnc3ccsc3c2)cc1)Nc1cc(C2(C(F)(F)F)CC2)on1` [Example 10, 2-(4-(thieno[3,2-b]pyridin-6-yl)phenyl)-N-(5-(1-(trifluoromethyl)cyclopropyl)isoxazol-3-yl)acetamide]: the Kd on FLT3 kinase and on KIT kinase was less than 5 nM each time.

As to `O=C(Cc1ccc(-c2cnc3cccnc3c2)cc1)Nc1cc(C2(C(F)(F)F)CC2)on1` [Example 11, 2-(4-(1,5-naphthyridin-3-yl)phenyl)-N-(5-(1-(trifluoromethyl)cyclopropyl)isoxazol-3-yl)acetamide], the dissociation constant (Kd) on FLT3 kinase and on KIT kinase was less than 5 nM each time.

Regarding `O=C(Cc1ccc(-c2cnc3ccncc3c2)cc1)Nc1cc(C2(C(F)(F)F)CC2)on1` [Example 12, 2-(4-(1,6-naphthyridin-3-yl)phenyl)-N-(5-(1-(trifluoromethyl)cyclopropyl)isoxazol-3-yl)acetamide], the Kd at FLT3 kinase and at KIT kinase was less than 5 nM each time.

Take `COc1cc(OC)c2cc(-c3ccc(CC(=O)Nc4cc(C5(C(F)(F)F)CC5)on4)cc3)cnc2c1` [Example 13, 2-(4-(5,7-dimethoxyquinolin-3-yl)phenyl)-N-(5-(1-(trifluoromethyl)cyclopropyl)isoxazol-3-yl)acetamide]: the Kd was less than 5 nM on FLT3 kinase and 5 to 20 nM at KIT kinase.

Consider `O=C(Cc1ccc(-c2cnc3[nH]cnc3n2)cc1)Nc1cc(C2(C(F)(F)F)CC2)on1` [Example 14, 2-(4-(1H-imidazo[4,5-b]pyrazin-5-yl)phenyl)-N-(5-(1-(trifluoromethyl)cyclopropyl)isoxazol-3-yl)acetamide], for which the Kd on FLT3 kinase and on KIT kinase was less than 5 nM in each case.

With `COc1cc2nc(-c3ccc(CC(=O)Nc4cc(C5(C(F)(F)F)CC5)on4)c(F)c3)cnc2cc1OCCN1CCN(C)CC1` [Example 81, 2-(2-fluoro-4-(7-methoxy-6-(2-(4-methylpiperazin-1-yl)ethoxy)quinoxalin-2-yl)phenyl)-N-(5-(1-(trifluoromethyl)cyclopropyl)isoxazol-3-yl)acetamide], the equilibrium dissociation constant (Kd) at FLT3 kinase and on KIT kinase was less than 5 nM in each case.

With `COc1cc2nc(-c3ccc(CC(=O)Nc4cc(C5(C(F)(F)F)CC5)on4)c(F)c3)cnc2cc1OCCN1CCC(F)(F)C1` [Example 82, 2-(4-(6-(2-(3,3-difluoropyrrolidin-1-yl)ethoxy)-7-methoxyquinoxalin-2-yl)-2-fluorophenyl)-N-(5-(1-(trifluoromethyl)cyclopropyl)isoxazol-3-yl)acetamide], the Kd at FLT3 kinase and on KIT kinase was less than 5 nM each time.

Consider `COc1cc2nc(-c3ccc(CC(=O)Nc4cc(C5(C(F)(F)F)CC5)on4)c(F)c3)cnc2cc1Br` [Example 83, 2-(4-(6-bromo-7-methoxyquinoxalin-2-yl)-2-fluorophenyl)-N-(5-(1-(trifluoromethyl)cyclopropyl)isoxazol-3-yl)acetamide], for which the Kd on FLT3 kinase and at KIT kinase was less than 5 nM throughout.

Turning to `COc1cc2nc(-c3ccc(CC(=O)Nc4cc(C5(C(F)(F)F)CC5)on4)c(F)c3)cnc2cc1CC(O)CO` (stereo not shown) [Example 84, 2-(4-(6-(2,3-dihydroxypropyl)-7-methoxyquinoxalin-2-yl)-2-fluorophenyl)-N-(5-(1-(trifluoromethyl)cyclopropyl)isoxazol-3-yl)acetamide], the Kd at FLT3 kinase and on KIT kinase was less than 5 nM each time.

As for `COc1cc2nc(-c3ccc(CC(=O)Nc4cc(C5(C(F)(F)F)CC5)on4)c(F)c3)cnc2cc1NCCN1CCOCC1` [Example 85, 2-(2-fluoro-4-(7-methoxy-6-((2-morpholinoethyl)amino)quinoxalin-2-yl)phenyl)-N-(5-(1-(trifluoromethyl)cyclopropyl)isoxazol-3-yl)acetamide], the Kd on FLT3 kinase and on KIT kinase was less than 5 nM throughout.

As for `COc1cc2nc(-c3ccc(CC(=O)Nc4cc(C(C)(C)C)on4)c(F)c3)cnc2cc1OCCN1CCOCC1` [Example 92, N-(5-(tert-butyl)isoxazol-3-yl)-2-(2-fluoro-4-(7-methoxy-6-(2-morpholinoethoxy)quinoxalin-2-yl)phenyl)acetamide], the Kd on KIT kinase is less than 5 nM.

As for `COc1cc2nc(-c3ccc(CC(=O)Nc4cc(C(C)(C)C(F)(F)F)on4)cc3)cnc2cc1OCCN1CCOCC1` [Example 93, 2-(4-(7-methoxy-6-(2-morpholinoethoxy)quinoxalin-2-yl)phenyl)-N-(5-(1,1,1-trifluoro-2-methylpropan-2-yl)isoxazol-3-yl)acetamide], the Kd at FLT3 kinase and on KIT kinase was less than 5 nM each time.

With `COc1cc2nc(-c3ccc(CC(=O)Nc4cc(C5(C(F)(F)F)CC5)on4)c(F)c3)cnc2cc1OCCN1CCOCC1(C)C` [Example 96, 2-(4-(6-(2-(3,3-dimethylmorpholino)ethoxy)-7-methoxyquinoxalin-2-yl)-2-fluorophenyl)-N-(5-(1-(trifluoromethyl)cyclopropyl)isoxazol-3-yl)acetamide], the Kd at FLT3 kinase and at KIT kinase was less than 5 nM throughout.

Turning to `CCN1CCN(CCOc2cc3ncc(-c4ccc(CC(=O)Nc5cc(C6(C(F)(F)F)CC6)on5)c(F)c4)nc3cc2OC)CC1` [Example 105, 2-[4-[6-[2-(4-ethylpiperazin-1-yl)ethoxy]-7-methoxy-quinoxalin-2-yl]-2-fluoro-phenyl]-N-[5-[1-(trifluoromethyl)cyclo-propyl]isoxazol-3-yl]acetamide], the Kd on FLT3 kinase and on KIT kinase was less than 5 nM in each case.

Compound `COc1cc2nc(-c3ccc(CC(=O)Nc4cc(C(C)(C)C(F)(F)F)on4)c(F)c3)cnc2cc1OCCN1CCOCC1` [Example 171, 2-[2-fluoro-4-[7-methoxy-6-(2-morpholino-ethoxy)quinoxalin-2-yl]phenyl]-N-[5-(2,2,2-trifluoro-1,1-dimethyl-ethyl)isoxazol-3-yl]acetamide] returned a Kd on KIT kinase of less than 5 nM.

With `COc1cc2ncc(-c3ccc(CC(=O)Nc4cc(C5(C(F)(F)F)CC5)nn4C)c(F)c3)nc2cc1OC` [Example 172, 2-[4-(6,7-dimethoxyquinoxalin-2-yl)-2-fluoro-phenyl]-N-[2-methyl-5-[1-(trifluoro-methyl)cyclopropyl]pyrazol-3-yl]acetamide], the Kd on FLT3 kinase and at KIT kinase was less than 5 nM throughout.

For the compound `COc1cc2ncc(-c3ccc(CC(=O)Nc4cc(C5(C(F)(F)F)CC5)nn4C(C)(C)C)c(F)c3)nc2cc1OC` [Example 173, N-[2-tert-butyl-5-[1-(trifluoromethyl)cyclo-propyl]pyrazol-3-yl]-2-[4-(6,7-dimethoxy-quinoxalin-2-yl)-2-fluoro-phenyl]acetamide], the Kd was 5 to 20 nM on FLT3 kinase and greater than 50 nM at KIT kinase.

As to `COc1cc2nc(-c3ccc(CC(=O)Nc4cc(C5(C(F)(F)F)CC5)on4)c(F)c3)cnc2cc1OCCN1CC(C)OC(C)C1` (stereo not shown) [Example 174, 2-[4-[6-[2-(2,6-dimethylmorpholin-4-yl)ethoxy]-7-methoxy-quinoxalin-2-yl]-2-fluoro-phenyl]-N-[5-[1-(trifluoro-methyl)cyclo-propyl]isoxazol-3-yl]acetamide], the Kd at FLT3 kinase and on KIT kinase was less than 5 nM throughout.

As to `CNCCOc1cc2ncc(-c3ccc(CC(=O)Nc4cc(C5(C(F)(F)F)CC5)on4)c(F)c3)nc2cc1OC` [Example 175, 2-[2-fluoro-4-[7-methoxy-6-[2-(methyl-amino)ethoxy]quinoxalin-2-yl]phenyl]-N-[5-[1-(trifluoro-methyl)cyclo-propyl]isoxazol-3-yl]acetamide], the Kd at FLT3 kinase and on KIT kinase was less than 5 nM each time.

As to `COc1cc2nc(-c3ccc(CC(=O)Nc4cc(C5(C(F)(F)F)CC5)on4)c(F)c3)cnc2cc1OCCN(C)C(C)=O` [Example 176, 2-[4-[6-[2-[acetyl(methyl)amino]ethoxy]-7-methoxy-quinoxalin-2-yl]-2-fluoro-phenyl]-N-[5-[1-(trifluoromethyl)cyclo-propyl]isoxazol-3-yl]acetamide], the Kd on FLT3 kinase and at KIT kinase was less than 5 nM each time.

As to `COCCOc1cc2cc(-c3ccc(CC(=O)Nc4cc(C(C)(C)C(F)(F)F)on4)c(F)c3)cnc2cc1OC` [Example 177, 2-[2-fluoro-4-[7-methoxy-6-(2-methoxyethoxy)-3-quinolyl]phenyl]-N-[5-(2,2,2-trifluoro-1,1-dimethyl-ethyl)isoxazol-3-yl]acetamide], the Kd on FLT3 kinase and at KIT kinase was less than 5 nM in each case.

The record behind these values is patent US9725465B2, “Biaryl acetamide compounds and methods of use thereof” (Ambit Biosciences Corporation, priority 2013, dated 2017).
